Our source for the EC50 and IC50 values is patent publication US20240043427A1 (Gilead Sciences, Inc., priority 2020, published 2024).

Each structure is given as a SMILES string.

Assay [1] deals with T1, CD73 (Homo sapiens (Human), UniProt P21589). As to the kind of experiment: MDA-MB-231 Cell Based CD73 Activity Assay (DMEM). To be noted: MDA-MB-231-GFP cells, DMEM medium with 10% human plasma, 200 uM AMP.
Assay [2] deals with T1, CD73. It counts as biochemical. The settings on record: 1 mM NaH2PO4 in enzyme buffer, CD73 0.3 nM, AMP 15 uM.

What is called EC50 is the concentration at which the effect is half-maximal. Read a low EC50 as an effect from little substance. Usually IC50 stands for the point on the concentration scale where inhibition reaches its midpoint. Low values mean greater potency, high ones weaker potency.

T1 sequence (P21589 27-574): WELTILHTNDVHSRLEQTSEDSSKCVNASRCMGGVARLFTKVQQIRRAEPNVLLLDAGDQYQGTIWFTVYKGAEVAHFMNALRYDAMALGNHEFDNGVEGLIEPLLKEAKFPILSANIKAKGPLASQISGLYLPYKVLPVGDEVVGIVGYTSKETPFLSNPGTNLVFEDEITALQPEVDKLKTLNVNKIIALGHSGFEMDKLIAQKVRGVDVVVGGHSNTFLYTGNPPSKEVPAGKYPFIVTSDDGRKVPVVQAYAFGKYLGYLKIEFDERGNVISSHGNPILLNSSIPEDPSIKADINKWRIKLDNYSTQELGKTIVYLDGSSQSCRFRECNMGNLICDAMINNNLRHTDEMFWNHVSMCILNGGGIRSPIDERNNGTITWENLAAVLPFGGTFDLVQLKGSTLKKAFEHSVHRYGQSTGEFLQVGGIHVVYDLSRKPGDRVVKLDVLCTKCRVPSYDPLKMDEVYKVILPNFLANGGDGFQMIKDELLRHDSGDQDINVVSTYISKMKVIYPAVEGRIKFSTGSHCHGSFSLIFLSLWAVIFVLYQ

Regarding `O=c1[nH]cc(-c2cc(-c3cnn(CCN4CCOCC4)c3)c3nccn3n2)c(=O)[nH]1` [Example 511, 5-(8-(1-(2-morpholinoethyl)-1H-pyrazol-4-yl)imidazo[1,2-b]pyridazin-6-yl)pyrimidine-2,4(1H,3H)-dione], the EC50 on CD73 [1] is 431 nM. In addition, the IC50 against CD73 [2] was > 250 nM.
`O=C(NC1CN(c2cc(-c3c[nH]c(=O)[nH]c3=O)nn3ccnc23)CC1(F)F)c1ccc(C(F)(F)F)cc1` (stereo not shown) [Example 210, N-[1-[6-(2,4-dioxo-1H-pyrimidin-5-yl)imidazo[1,2-b]pyridazin-8-yl]-4,4-difluoro-pyrrolidin-3-yl]-4-(trifluoromethyl)benzamide] registered an EC50 at CD73 [1] of 24.4 nM. Also, at CD73 [2], half-maximal inhibition (IC50) required 4.59 nM.
For `CC(NC(=O)O[C@H]1CN(c2cc(-c3c[nH]c(=O)[nH]c3=O)nn3ccnc23)CC1(F)F)C(F)F` (stereo partly drawn) [Example 550, (S)-1-(6-(2,4-dioxo-1,2,3,4-tetrahydropyrimidin-5-yl)imidazo[1,2-b]pyridazin-8-yl)-4,4-difluoropyrrolidin-3-yl (1,1-difluoropropan-2-yl)carbamate] the same measures were 0.83 nM and 1.67 nM.
With `COc1ccc(C2CN(c3cc(-c4c[nH]c(=O)[nH]c4=O)nn4ccnc34)CC2(F)F)cc1` (stereo not shown) [Example 194, 5-[8-[3,3-difluoro-4-(4-methoxyphenyl)pyrrolidin-1-yl]imidazo[1,2-b]pyridazin-6-yl]-1H-pyrimidine-2,4-dione], on CD73 [1], a half-maximal effect (EC50) was put at 469 nM. The midpoint of inhibition on CD73 [2], the IC50, lay at 3.32 nM.
In the case of `O=c1[nH]cc(-c2cc(N3CC[C@H](C(F)F)C3)c3nccn3n2)c(=O)[nH]1` [Example 229, (S)-5-(8-(3-(difluoromethyl)pyrrolidin-1-yl)imidazo[1,2-b]pyridazin-6-yl)pyrimidine-2,4(1H,3H)-dione], the response on CD73 [1] was half-maximal at 175 nM (EC50). At CD73 [2], this compound had an IC50 of 56.9 nM.
Consider `O=c1[nH]cc(-c2cc(N3C[C@@H](Oc4ccc(OC(F)(F)C(F)(F)F)cn4)C(F)(F)C3)c3nccn3n2)c(=O)[nH]1` [Example 336, (R)-5-(8-(3,3-difluoro-4-((5-(perfluoroethoxy)pyridin-2-yl)oxy)pyrrolidin-1-yl)imidazo[1,2-b]pyridazin-6-yl)pyrimidine-2,4(1H,3H)-dione], for which, on CD73 [1], the EC50 was > 250 nM. This compound also returned an IC50 at CD73 [2] of 34.9 nM.
Compound `COc1ccc(CN(CC(F)F)c2cc(-c3c[nH]c(=O)[nH]c3=O)nn3ccnc23)cc1` [Example 671, 5-(8-((2,2-difluoroethyl)(4-methoxybenzyl)amino)imidazo[1,2-b]pyridazin-6-yl)pyrimidine-2,4(1H,3H)-dione] had an EC50 on CD73 [1] of 1620 nM. The IC50 against CD73 [2] was > 250 nM.
The compound `CC(=O)N1CC2(C1)CN(c1cc(-c3c[nH]c(=O)[nH]c3=O)nn3ccnc13)CC2(F)F` [Example 503, 5-(8-(2-acetyl-8,8-difluoro-2,6-diazaspiro[3.4]octan-6-yl)imidazo[1,2-b]pyridazin-6-yl)pyrimidine-2,4(1H,3H)-dione] displayed an EC50 on CD73 [1] of 5.47 nM. In addition, half-maximal inhibition on CD73 [2] (IC50) required 5.22 nM.
On to `CCNC(=O)OC1CN(c2cc(-c3c[nH]c(=O)[nH]c3=O)nn3ccnc23)CC1(F)F` (stereo not shown) [Example 526, 1-(6-(2,4-dioxo-1,2,3,4-tetrahydropyrimidin-5-yl)imidazo[1,2-b]pyridazin-8-yl)-4,4-difluoropyrrolidin-3-yl ethylcarbamate], for which the midpoint of the response at CD73 [1], the EC50, lay at 1.13 nM. Moreover, the IC50 at CD73 [2] worked out at 1.32 nM.
In the case of `O=c1[nH]cc(-c2cc([C@H]3C[C@@H]3c3ccc4cnn(CC(F)(F)F)c4c3)c3ncc(F)n3n2)c(=O)[nH]1` [Example 319, 5-(3-fluoro-8-((1S,2S)-2-(1-(2,2,2-trifluoroethyl)-1H-indazol-6-yl)cyclopropyl)imidazo[1,2-b]pyridazin-6-yl)pyrimidine-2,4(1H,3H)-dione], the response at CD73 [1] was half-maximal at 0.07 nM (EC50). Further, the IC50 on CD73 [2] worked out at 0.34 nM.
Turning to `O=c1[nH]cc(-c2cc(N3CCC(c4ccc(C(F)(F)F)cc4)C3)c3nccn3n2)c(=O)[nH]1` (stereo not shown) [Example 248, 5-(8-(3-(4-(trifluoromethyl)phenyl)pyrrolidin-1-yl)imidazo[1,2-b]pyridazin-6-yl)pyrimidine-2,4(1H,3H)-dione], a half-maximal response on CD73 [1] (EC50) required 36.3 nM. Besides, at CD73 [2], half-maximal inhibition (IC50) was put at 15.1 nM.
